target: KRasG12D (Homo sapiens, UniProt P01116, G12D); experiment: KRAS inhibitory activity test, TR-FRET (inhibition of binding of KRasG12D to GTP, SOS/GTP nucleotide exchange); assay type: biochemical; conditions: read-out: IC50 values of the compounds for inhibiting KRAS enzymes, G12D
Description: • 1. […] Reagent Preparation: • a. Storage Reagents:
Prepare a 1L solution by mixing 20mL of 1000mM HEPES, 20mL of 500mM EDTA, 10mL of 5M sodium chloride, 0.1mL of 100% Tween 20, and 949.9mL of water. Sterilize by filtration and store at 4°C.
Prepare a 1L solution by mixing 20mL of 1000mM HEPES, 10mL of 1000mM magnesium chloride, 30mL of 5M sodium chloride, 0.05mL of 100% Tween 20, and 939.95mL of water. Sterilize by filtration and store at 4°C. 3) KRAS/Bodipy GDP/Tb-SA Mixture: Mix 9.5 µL of 95 µM KRasG12D protein with 440.5 µL of KRAS nucleotide exchange buffer. Incubate at room temperature for 1 hour. Then, mix with 8.4 µL of 17.9 µM Tb-SA, 1.8 µL of 5 mM Bodipy GDP, and 9539.8 µL of KRAS experimental buffer to prepare […]. After mixing, incubate at room temperature for 6 hours and store at -80°C.
• 1) KRAS Enzyme Solution: Mix 73.3 µL of KRAS/Bodipy GDP/Tb-SA mixture with 2126.7 µL of KRAS experimental buffer to prepare a 2200 µL solution. • 2) SOS/GTP Mixture
c. Experimental Procedure: Mix 1.59 µL of 166 µM SOS protein with 198 µL of 100 mM... GTP and 0.41 µL KRAS buffer were prepared to a 2200 µL solution. The stock solution concentration of the control compound was 1 mM, and the stock solution concentration of the test compound was 10 mM. 9 µL of the control compound and the test compound were transferred to a 384-LDV plate. The compound on the LDV plate was 3-fold diluted 10-point using Bravo. 9 nL of the compound on the LDV plate was transferred to the experimental plate using ECHO. 3 µL of a 3 nM Kras/0.5 nM TB-SA/30 nM BodipyGDP mixture and 3 µL of Ras buffer were added to each well of the experimental plate using a Dragonfly autopilot. The plate was centrifuged at 1000 rpm for 1 minute. The plate was incubated at room temperature for 1 hour. 3 µL of 120 nM SOS/9 mM KRAS buffer was added to each well of the experimental plate using a Dragonfly autopilot. The […] was centrifuged at 1000 rpm for 1 minute; the plate was incubated at room temperature for 1 hour; the plate was read and the data were recorded using Envision; the data were analyzed using Excel and Xlfit to calculate the IC50of the test compound. "++++" indicates IC50≤ 10 nM; "+++" indicates 10 nM < IC50≤ 100 nM; "++" indicates 100 nM < IC50≤ 2000 nM; "+" indicates 2000 nM < IC50.

Row | Molecule | IC50 [nM]
1 | CC#Cc1cc(N)c(F)c(C2Cc3nc(OC[C@@]45CCCN4C/C(=C\F)C5)nc(N4CC5CCC(C4)N5)c3CS2(=O)=O)c1C(F)(F)F (stereo partly drawn) [Compound 24, 7-(3-amino-2-fluoro-5-(prop-1-yn-1-yl)-6-(trifluoromethyl)phenyl)-4-(3,8-diazabicyclo[3.2.1]octane-3-yl)-2-(((S)-2-(fluoromethylene)tetrahydro-1H-pyrrolazin-7a(5H)-yl)methoxy)-7,8-dihydro-5H-thiopyrano[4,3-d]pyrimidine-6,6-dioxide] | ≤ 10
2 | Cc1cc(N)c(F)c([C@H]2Cc3nc(OC[C@@]45CCCN4C[C@H](F)C5)nc(N4CCC[C@@](C)(O)C4)c3CS2(=O)=O)c1C(F)(F)F [Compound 5B, (7R)-7-(3-amino-2-fluoro-5-methyl-6-(trifluoromethyl)phenyl)-2-(((2R,7AS)-2-fluorotetrahydro-1H-pyrrolazin-7a(5H)-yl)methoxy)-4-((R)-3-hydroxy-3-methylpiperidin-1-yl)-7,8-dihydro-5H-thiopyrano[4,3-d]pyrimidine-6,6-dioxide] | ≤ 10
3 | Cc1cc(N)nc([C@@H]2Cc3nc(OC[C@@]45CCCN4CC(=C(F)F)C5)nc(N4CC5CCC(C4)N5)c3CS2(=O)=O)c1C(F)(F)F [Compound 18A, (7S)-7-(6-amino-4-methyl-3-(trifluoromethyl)pyridin-2-yl)-2-(((S)-2-(difluoromethylene)tetrahydro-1H-pyrrolazin-7a(5H)-yl)methoxy)-4-(3,8-diazabicyclo[3.2.1]octane-3-yl)-7,8-dihydro-5H-thiopyrano[4,3-d]pyrimidine-6,6-dioxide] | ≤ 10
4 | C=C1CN2CCC[C@@]2(COc2nc3c(c(N4CC5CCC(C4)N5)n2)CS(=O)(=O)[C@H](c2c(F)c(N)cc(C#CC)c2C(F)(F)F)C3)C1 [Compound 22A, (7S)-7-(3-amino-2-fluoro-5-(prop-1-yn-1-yl)-6-(trifluoromethyl)phenyl)-4-(3,8-diazabicyclo[3.2.1]octane-3-yl)-2-(((S)-2-(methylene)tetrahydro-1H-pyrrolazin-7a(5H)-yl)methoxy)-7,8-dihydro-5H-thiopyrano[4,3-d]pyrimidine-6,6-dioxide] | ≤ 10
5 | Cc1cc(N)c(F)c([C@@H]2Cc3nc(OC[C@@]45CCCN4CC(=C(F)F)C5)nc(N4CC5CCC(C4)N5)c3CS2(=O)=O)c1C(F)(F)F [Compound 10A, (7S)-7-(3-amino-2-fluoro-5-methyl-6-(trifluoromethyl)phenyl)-4-(3,8-diazabicyclo[3. 2.1]octane-3-yl)-2-(((S)-2-(difluoromethylene)tetrahydro-1H-pyrrolazin-7a(5H)-yl)methoxy)-7,8-dihydro-5H-thiopyrano[4,3-d]pyrimidine-6,6-dioxide] | ≤ 10
6 | 7-(3-amino-2-fluoro-5-methyl-6-(trifluoromethyl)phenyl)-4-(3,8-diazabicyclo[3.2.1]o ctane-3-yl)-2-(((S)-2-(difluoromethylene)tetrahydro-1H-pyrrolazin-7a(5H)-yl)methox y)-7,8-dihydro-5H-thiopyrano[4,3-d]pyrimidine-6,6-dioxide [Compound 9] | ≤ 10
7 | Cc1cc(N)nc([C@@H]2Cc3nc(OC[C@@]45CCCN4C[C@H](F)C5)nc(N4CCC[C@@](C)(O)C4)c3CS2(=O)=O)c1C(F)(F)F [Compound 7A, (7S)-7-(6-amino-4-methyl-3-(trifluoromethyl)pyridin-2-yl)-2-(((2R,7AS)-2-fluorotetrahydro-1H-pyrrolazin-7a(5H)-yl)methoxy)-4-((R)-3-hydroxy-3-methylpiperidin-1-yl) -7,8-dihydro-5H-thiopyrano[4,3-d]pyrimidine-6,6-dioxide] | ≤ 10
8 | Cc1cc(N)nc([C@H]2Cc3nc(OC[C@@]45CCCN4C[C@H](F)C5)nc(N4CCC[C@@](C)(O)C4)c3CS2(=O)=O)c1C(F)(F)F [Compound 8B, (7R)-7-(6-amino-4-methyl-3-(trifluoromethyl)pyridin-2-yl)-2-(((2R,7AS)-2-fluorotetrahydro-1H-pyrrolazin-7a(5H)-yl)methoxy)-4-((R)-3-hydroxy-3-methylpiperidin-1-yl) -7,8-dihydro-5H-thiopyrano[4,3-d]pyrimidine-6,6-dioxide] | 10 to 100
9 | Cc1cc(O)nc([C@H]2Cc3nc(OC[C@@]45CCCN4C[C@H](F)C5)nc(N4C[C@H]5CC[C@@H](C4)N5)c3CS2(=O)=O)c1C(F)(F)F [Compound 4B, (7R)-4-((1R,5S)-3,8-diazabicyclo[3.2.1]octane-3-yl)-2-(((2R,7AS)-2-fluorotetrahydro-1H-pyrrolazin-7a(5H)-yl)methoxy)-7-(6-hydroxy-4-methyl-3-(trifluoromethyl)pyridin-2-yl)-7,8-dihydro-5H-thiopyrano[4,3-d]pyrimidine-6,6-dioxide] | 10 to 100
10 | CC#Cc1cc(N)c(F)c([C@@H]2Cc3nc(OC[C@@]45CCCN4C[C@H](F)C5)nc(N4CC5CCC(C4)N5)c3CS2(=O)=O)c1C(F)(F)F [Compound 21A, (7S)-7-(3-amino-2-fluoro-5-(prop-1-yn-1-yl)-6-(trifluoromethyl)phenyl)-4-(3,8-diazabicyclo[3.2.1]octane-3-yl)-2-(((2R,7AS)-2-fluorotetrahydro-1H-pyrrolazin-7a(5H)-yl)methoxy)-7,8-dihydro-5H-thiopyrano[4,3-d]pyrimidine-6,6-dioxide] | ≤ 10
11 | C=C1CN2CCC[C@@]2(COc2nc3c(c(N4CC5CCC(C4)N5)n2)CS(=O)(=O)[C@H](c2nc(N)cc(C)c2C(F)(F)F)C3)C1 [Compound 20A, (7S)-7-(6-amino-4-methyl-3-(trifluoromethyl)pyridin-2-yl)-2-(((S)-2-(methylene)tetra hydro-1H-pyrrolazin-7a(5H)-yl)methoxy)-4-(3,8-diazabicyclo[3.2.1]octane-3-yl)-7,8-dihydro-5H-thiopyrano[4,3-d]pyrimidine-6,6-dioxide] | ≤ 10
12 | C=C1CN2CCC[C@@]2(COc2nc3c(c(N4CC5CCC(C4)N5)n2)CS(=O)(=O)C(c2nc(N)cc(C)c2C(F)(F)F)C3)C1 (stereo partly drawn) [Compound 20, 7-(6-amino-4-methyl-3-(trifluoromethyl)pyridin-2-yl)-2-(((S)-2-(methylene)tetrahydro-1H-pyrrolazin-7a(5H)-yl)methoxy)-4-(3,8-diazabicyclo[3.2.1]octane-3-yl)-7,8-dihy dro-5H-thiopyrano[4,3-d]pyrimidine-6,6-dioxide] | ≤ 10
13 | CC#Cc1cc(N)c(F)c(C2Cc3nc(OC[C@@]45CCCN4CC(=C(F)F)C5)nc(N4CC5CCC(C4)N5)c3CS2(=O)=O)c1C(F)(F)F (stereo partly drawn) [Compound 23, 7-(3-amino-2-fluoro-5-(prop-1-yn-1-yl)-6-(trifluoromethyl)phenyl)-4-(3,8-diazabicyclo[3.2.1]octane-3-yl)-2-(((S)-2-(difluoromethylene)tetrahydro-1H-pyrrolazin-7a(5H)-y 1)methoxy)-7,8-dihydro-5H-thiopyrano[4,3-d]pyrimidine-6,6-dioxide] | ≤ 10
14 | Cc1cc(O)c(F)c([C@H]2Cc3nc(OC[C@@]45CCCN4C[C@H](F)C5)nc(N4CCC[C@@](C)(O)C4)c3CS2(=O)=O)c1C(F)(F)F [Compound 6B, (7R)-7-(2-fluoro-3-hydroxy-5-methyl-6-(trifluoromethyl)phenyl)-2-(((2R,7AS)-2-fluorotetrahydro-1H-pyrrolazin-7a(5H)-yl)methoxy)-4-((R)-3-hydroxy-3-methylpiperidin-1-yl)-7,8-dihydro-5H-thiopyrano[4,3-d]pyrimidine-6,6-dioxide] | 10 to 100
15 | Cc1cc(N)cc([C@@H]2Cc3nc(OC[C@@]45CCCN4C[C@H](F)C5)nc(N4CC5CCC(C4)N5)c3CS2(=O)=O)c1C(F)(F)F [Compound 37A] | ≤ 10
